Holding throughout (format): biochemical
One assay deals with T1, abl (Homo sapiens, UniProt P00519).
T1 sequence (P00519 242-493 limits assumed): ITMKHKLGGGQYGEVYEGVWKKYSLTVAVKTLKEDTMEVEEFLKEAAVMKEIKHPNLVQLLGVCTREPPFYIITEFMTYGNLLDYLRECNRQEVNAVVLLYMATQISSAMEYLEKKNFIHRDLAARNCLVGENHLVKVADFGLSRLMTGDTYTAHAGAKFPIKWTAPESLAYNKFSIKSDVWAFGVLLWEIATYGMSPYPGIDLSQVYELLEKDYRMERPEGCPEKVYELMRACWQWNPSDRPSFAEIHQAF
Description: abl kinase assay (ELISA or Alphascreen). Particulars: read-out: abl inhibition of enzyme activity. The essentials:
(§1)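 Affinity-purified PTK domain (~1.5 μg) phosphorylated biotinylated peptide (5 μM final) in 50 mM HEPES pH 7.5, 10 mM MgCl2, 150 mM NaCl, 10 μM-1 mM ATP. Phosphotyrosine read by PY20 ELISA or Alphascreen.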
For orientation: ELISA stands for enzyme-linked immunosorbent assay.

Another assay concerns the target fes (Homo sapiens, UniProt P07332). Description: fes kinase assay (ELISA or Alphascreen). Conditions: read-out: fes inhibition of enzyme activity. The method in brief:
as §1

The next assay deals with T2, fms (Homo sapiens, UniProt P07333).
T2 sequence (P07333 582-910 limits assumed): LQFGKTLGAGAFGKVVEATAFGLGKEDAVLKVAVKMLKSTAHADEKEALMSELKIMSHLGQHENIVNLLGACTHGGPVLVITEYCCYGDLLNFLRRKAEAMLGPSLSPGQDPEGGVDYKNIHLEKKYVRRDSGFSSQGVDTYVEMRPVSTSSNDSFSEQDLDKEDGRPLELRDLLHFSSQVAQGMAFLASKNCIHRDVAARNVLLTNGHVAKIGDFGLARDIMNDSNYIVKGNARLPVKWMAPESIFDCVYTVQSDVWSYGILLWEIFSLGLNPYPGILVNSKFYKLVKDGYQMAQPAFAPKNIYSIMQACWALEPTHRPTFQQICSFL
As to the kind of experiment: fms kinase assay (ELISA or Alphascreen). Conditions: read-out: fms inhibition of enzyme activity. The essentials:
as §1

Another assay concerns the target hck (Homo sapiens, UniProt P08631). Description: hck kinase assay (ELISA or Alphascreen). Particulars: read-out: hck inhibition of enzyme activity. The method, then: Kinase assays were performed in a 96 well capture-based ELISA assay or in 384 well Optiplates (Packard) using an Alphascreen Protein Tyrosine Kinase kit. In either case using approximately 1.5 μg of affinity purified PTK domain in the presence of 50 mM HEPES, pH 7.5, 10 mM MgCl2, 150 mM NaCl and 10 μM-1 mM ATP. The biotinylated substrate biotin-EGPWLEEEEEAYGWMDF-NH2 (SEQ ID NO:9) (final concentration 5 μM) was used as substrate. In the ELISA assay tyrosine phosphorylation was quantitated following transfer to an avidin coated ELISA plate using peroxidase-linked anti-phosphotyrosine antibody PY20. In the Alphascreen assay, Alphascreen phosphotyrosine acceptor beads followed by streptavidin donor beads were added under subdued light. The ELISA plates were read on a BMG Fluorostar, the Alphascreen plates were read on a Packard Fusion Alpha. Inhibitors were added to the assays fifteen minutes prior to the addition of ATP. Inhibitors were added in aqueous […] concentrations never exceeding 1%.

In another assay the target is T3, Zap70 (Homo sapiens, UniProt P43403).
T3 sequence (P43403 338-600 limits assumed): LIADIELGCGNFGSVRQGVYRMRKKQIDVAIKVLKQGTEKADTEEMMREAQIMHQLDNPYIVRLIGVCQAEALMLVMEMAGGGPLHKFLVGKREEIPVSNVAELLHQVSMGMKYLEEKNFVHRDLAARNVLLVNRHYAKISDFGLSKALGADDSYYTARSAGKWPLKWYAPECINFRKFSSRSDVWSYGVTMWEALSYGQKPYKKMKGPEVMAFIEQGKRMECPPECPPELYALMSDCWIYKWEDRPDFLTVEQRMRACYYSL
Description: Zap70 kinase assay (ELISA or Alphascreen). Conditions: read-out: Zap70 inhibition of enzyme activity. The essentials: as §1

A further assay deals with T4, human JAK2 (Homo sapiens, UniProt O60674).
T4 construct: The kinase domain of human JAK2 was amplified from U937mRNA; His tag (from the pFastBac HTc vector) (N); made in house; host or cells: baculovirus; Sf9 for virus, High Five insect cells for production
T4 sequence (O60674 849-1124 limits assumed): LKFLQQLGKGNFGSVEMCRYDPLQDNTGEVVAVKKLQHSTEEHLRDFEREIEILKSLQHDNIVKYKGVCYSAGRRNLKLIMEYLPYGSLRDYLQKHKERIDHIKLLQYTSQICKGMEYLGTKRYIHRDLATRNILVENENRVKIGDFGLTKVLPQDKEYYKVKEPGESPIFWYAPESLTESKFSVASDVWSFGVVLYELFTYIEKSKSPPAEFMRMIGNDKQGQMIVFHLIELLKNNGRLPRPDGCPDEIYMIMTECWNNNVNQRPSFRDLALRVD
As to the kind of experiment: JAK2 kinase assay (ELISA or Alphascreen). Conditions: read-out: Jak2 inhibition of enzyme activity. The essentials:
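His-tagged human JAK2 kinase domain from baculovirus-infected insect cells, ~1.5 μg per assay, in 50 mM HEPES pH 7.5, 10 mM MgCl2, 150 mM NaCl, with 10 μM–1 mM ATP and 5 μM biotinylated peptide substrate. Phosphotyrosine detected by PY20 ELISA or AlphaScreen.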

The next assay addresses T5, human JAK3 (Homo sapiens, UniProt P52333).
T5 construct: The kinase domain of human JAK3 was amplified from U937mRNA; His tag (from the pFastBac HTb vector) (N); made in house; host or cells: baculovirus; Sf9 for virus, High Five insect cells for production
As to the kind of experiment: JAK3 kinase assay (ELISA or Alphascreen). Particulars: read-out: Jak3 inhibition of enzyme activity. The method in brief:
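His-tagged human JAK3 kinase domain from High Five cells, ~1.5 μg per assay, in 50 mM HEPES pH 7.5, 10 mM MgCl2, 150 mM NaCl, 10 μM-1 mM ATP, 5 μM biotinylated peptide substrate. Phosphotyrosine by PY20 ELISA or Alphascreen.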

Sequence of hck (P08631 262-515 limits assumed, species assumed): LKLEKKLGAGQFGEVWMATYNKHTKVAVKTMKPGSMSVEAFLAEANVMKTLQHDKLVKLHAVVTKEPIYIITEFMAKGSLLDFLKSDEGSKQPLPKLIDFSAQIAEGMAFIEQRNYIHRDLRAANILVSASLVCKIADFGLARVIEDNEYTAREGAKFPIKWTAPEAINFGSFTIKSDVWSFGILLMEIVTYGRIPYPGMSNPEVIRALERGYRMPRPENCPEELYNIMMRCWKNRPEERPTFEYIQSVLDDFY
Sequence of fes (P07332 561-822 limits assumed, species assumed): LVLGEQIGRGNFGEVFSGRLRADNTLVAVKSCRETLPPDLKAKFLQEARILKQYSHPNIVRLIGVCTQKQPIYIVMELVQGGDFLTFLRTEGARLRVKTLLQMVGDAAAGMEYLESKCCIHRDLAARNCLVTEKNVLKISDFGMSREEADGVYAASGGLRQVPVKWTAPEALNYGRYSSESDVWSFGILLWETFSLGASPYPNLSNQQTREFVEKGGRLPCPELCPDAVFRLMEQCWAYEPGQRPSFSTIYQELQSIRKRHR
T5 sequence (P52333 822-1111 limits assumed): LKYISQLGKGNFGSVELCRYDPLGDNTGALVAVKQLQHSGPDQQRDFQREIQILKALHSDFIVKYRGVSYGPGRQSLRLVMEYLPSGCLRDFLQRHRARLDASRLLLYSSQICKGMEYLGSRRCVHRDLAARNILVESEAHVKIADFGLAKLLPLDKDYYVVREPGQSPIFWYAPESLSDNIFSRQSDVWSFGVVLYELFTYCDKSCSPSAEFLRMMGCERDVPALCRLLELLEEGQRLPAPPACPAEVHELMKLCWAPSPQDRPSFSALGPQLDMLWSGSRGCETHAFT

Take `COc1ccc(NC(=O)c2cncc(-c3cc(OC)c(OC)c(OC)c3)c2)c(OC)c1`: the inhibition at 10 µM on abl, at fes, on fms, at hck and on Zap70 was below 50% each time.
Consider `COc1cc(-c2cncc(C(=O)NCCO)c2)cc(OC)c1OC`, for which the inhibition at 10 µM is below 50% at abl; below 50% on fes; below 50% at fms; below 50% at hck; at least 50% on Zap70.
Turning to `COc1cc(-c2cncc(C(=O)NCCO)c2)ccc1O`, the inhibition at 10 µM on human JAK2, on human JAK3, at abl, on fes, on hck and on Zap70 was below 50% each time.
As for `O=C(NCc1ccc(Cl)c(Cl)c1)c1cncc(-c2ccc(O)cc2)c1`, the inhibition at 10 µM on human JAK2, at human JAK3, on abl, on fes, on hck and at Zap70 was below 50% each time.
As to `Cc1ccc(CNC(=O)c2cncc(-c3ccc(O)cc3)c2)cc1`, the inhibition at 10 µM at human JAK2, at human JAK3, at abl, at fes, at hck and on Zap70 was below 50% each time.
Regarding `CC(NC(=O)c1cncc(-c2ccc(O)cc2)c1)c1ccc(F)cc1` (stereo not drawn), the inhibition at 10 µM on human JAK2, at human JAK3, at abl, at fes, at hck and on Zap70 was below 50% in each case.
As to `COc1cc(-c2cncc(C(=O)Nc3ccccc3)c2)c(Cl)c(OC)c1OC`, the inhibition at 10 µM at human JAK2, at human JAK3, at abl, at fes, on hck and at Zap70 was below 50% in each case.
For the molecule `COc1ccc(NC(=O)c2cncc(-c3cccs3)c2)c(OC)c1`, the inhibition at 10 µM on human JAK2, at abl, at fes, at fms, at hck and at Zap70 was below 50% throughout.
For `Cc1ccccc1NC(=O)c1cncc(-c2cccs2)c1`, the inhibition at 10 µM at human JAK2 is below 50%; on human JAK3, below 50%; on abl, below 50%; at fes, below 50%; at hck it was at least 50%; on Zap70, below 50%.
For the molecule `COc1cc(NC(=O)c2cncc(-c3cccs3)c2)cc(OC)c1OC`, the inhibition at 10 µM at human JAK2, on abl, on fes, at fms, at hck and on Zap70 was below 50% throughout.
In the case of `COc1ccc(CNC(=O)c2cncc(-c3cccnc3)c2)cc1`, the inhibition at 10 µM at human JAK2, at human JAK3, at abl, on fes, at hck and at Zap70 was below 50% each time.
Regarding `CC(C)C(CO)NC(=O)c1cncc(-c2ccc(F)cc2)c1` (stereo not drawn), the inhibition at 10 µM at human JAK2, on abl, at fes, at fms, at hck and at Zap70 was below 50% in each case.
Take `Cc1ccc(CNC(=O)c2cncc(-c3ccc(F)cc3)c2)cc1`: the inhibition at 10 µM on human JAK2, at abl, on fes, on fms, on hck and on Zap70 was below 50% each time.
Take `Cc1cc(F)ccc1NC(=O)c1cncc(-c2ccc(F)cc2)c1`: the inhibition at 10 µM at human JAK2, on human JAK3, at abl, at fes, on hck and at Zap70 was below 50% in each case.
For `CN(Cc1ccccc1)C(=O)c1cncc(-c2ccc(F)cc2)c1`, the inhibition at 10 µM at human JAK2, on abl, at fes, on fms, at hck and at Zap70 was below 50% throughout.
`COc1cccc(-c2cncc(C(=O)N[C@H](C)c3ccccc3)c2)c1`: the inhibition at 10 µM on human JAK2, on human JAK3, at abl, on fes, on hck and at Zap70 was below 50% each time.
Take `COc1cccc(-c2cncc(C(=O)N[C@@H](C)c3ccccc3)c2)c1`: the inhibition at 10 µM at human JAK2, at human JAK3, at abl, on fes, on hck and on Zap70 was below 50% each time.
With `O=C(NCc1ccc(F)cc1)c1cncc(-c2ccncc2)c1`, the inhibition at 10 µM on abl was below 50%; on fes, at least 50%; at fms it was below 50%; on hck it was below 50%; at Zap70, below 50%.
Regarding `O=C(NCc1ccc(F)cc1)c1cncc(-c2cccnc2)c1`, the inhibition at 10 µM at abl, on fes, at fms, at hck and on Zap70 was below 50% each time.
For `Cc1cc(F)ccc1NC(=O)c1cncc(-c2ccncc2)c1`, the inhibition at 10 µM on abl, on fes, at fms, at hck and at Zap70 was below 50% throughout.
With `Cc1cc(F)ccc1NC(=O)c1cncc(-c2cccnc2)c1`, the inhibition at 10 µM on abl, on fes, at fms, on hck and at Zap70 was below 50% throughout.

Broadly, the inhibition is how much of the control response was suppressed.

Source of the values: patent US8030336B2, “Nicotinamide-based kinase inhibitors” (YM Biosciences Australia Pty Ltd, priority 2002, dated 2011).
